Data: PubChem BioAssay (NCI)
Several values for one entry are separate records, joined by “and”; a condition that tells them apart may be missing. Equal values may be shown once.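 Tested at 5 concentrations; 48 h exposure; 96-well plates; endpoints linearly interpolated, else capped at highest concentration. At the GI50, growth is halved. TGI denotes the concentration required for complete inhibition of growth.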

Assays:
Experiment in all cases: NCI anticancer screen, dose series, 48 h
RPMI-8226 leukemia = tested on: RPMI-8226 leukemia
OVCAR-3 ovarian = tested on: OVCAR-3 ovarian
HCC-2998 colon = tested on: HCC-2998 colon
MDA-MB-435 = tested on: MDA-MB-435
BT-549 breast = tested on: BT-549 breast
UACC-257 melanoma = tested on: UACC-257 melanoma
SW-620 colon = tested on: SW-620 colon
K-562 leukemia = tested on: K-562 leukemia
HT29 colon = tested on: HT29 colon
M14 melanoma = tested on: M14 melanoma

Compound: CCOC(=O)C(Cc1cc(OC)c(CC(C(=O)OCC)C(=O)OCC)cc1OC)C(=O)OCC
- TGI (RPMI-8226 leukemia): > 100 µM
- TGI (OVCAR-3 ovarian): > 100 µM
- TGI (HCC-2998 colon): > 100 µM
- TGI (MDA-MB-435): > 100 µM
- TGI (BT-549 breast): > 100 µM
- TGI (UACC-257 melanoma): > 100 µM
- TGI (SW-620 colon): > 100 µM
- TGI (K-562 leukemia): > 100 µM
- TGI (HT29 colon): > 100 µM
- TGI (M14 melanoma): > 100 µM

Compound: CC(C)(C)OC(=O)NCCCCCCCCCCCCn1c2c(c3ccccc3c1=O)C(=O)c1ccccc1-2
- GI50 (RPMI-8226 leukemia): > 100 µM
- TGI (RPMI-8226 leukemia): > 100 µM
- GI50 (OVCAR-3 ovarian): > 100 µM
- TGI (OVCAR-3 ovarian): > 100 µM
- GI50 (HCC-2998 colon): > 100 µM
- TGI (HCC-2998 colon): > 100 µM
- GI50 (MDA-MB-435): > 100 µM
- TGI (MDA-MB-435): > 100 µM
- GI50 (BT-549 breast): 38.5 µM
- TGI (BT-549 breast): > 100 µM
- GI50 (UACC-257 melanoma): > 100 µM
- TGI (UACC-257 melanoma): > 100 µM
- GI50 (SW-620 colon): > 100 µM
- TGI (SW-620 colon): > 100 µM
- GI50 (K-562 leukemia): 46.9 µM
- TGI (K-562 leukemia): > 100 µM
- GI50 (HT29 colon): > 100 µM
- TGI (HT29 colon): > 100 µM
- GI50 (M14 melanoma): > 100 µM
- TGI (M14 melanoma): > 100 µM

Compound: CC(=O)c1nc(-c2ccc(C[C@@H](CNC(=O)CN(C)C)NC(=O)c3ccc(OC(C)C)c(Cl)c3)cc2)cn1C
- GI50 (RPMI-8226 leukemia): 0.0413 µM
- TGI (RPMI-8226 leukemia): 23.2 µM
- GI50 (OVCAR-3 ovarian): 0.0332 µM
- TGI (OVCAR-3 ovarian): 13.3 µM
- GI50 (HCC-2998 colon): 0.134 µM
- TGI (HCC-2998 colon): 21.8 µM
- GI50 (MDA-MB-435): 0.0297 µM
- TGI (MDA-MB-435): 14 µM
- GI50 (BT-549 breast): 0.285 µM
- TGI (BT-549 breast): 19.5 µM
- GI50 (UACC-257 melanoma): 9.58 µM
- TGI (UACC-257 melanoma): 24.3 µM
- GI50 (SW-620 colon): 0.0663 µM
- TGI (SW-620 colon): 20.4 µM
- GI50 (K-562 leukemia): < 0.0196 µM
- TGI (K-562 leukemia): 12.9 µM
- GI50 (HT29 colon): 0.024 µM
- TGI (HT29 colon): 12.5 µM
- GI50 (M14 melanoma): 0.0317 µM
- TGI (M14 melanoma): 2.54 µM

Compound: COC1CCC(OC)C(c2nc3sccn3c2/C=N/N=C(N)N)C1 (centres undefined)
- GI50 (RPMI-8226 leukemia): 4.18 µM
- TGI (RPMI-8226 leukemia): 43.9 µM
- GI50 (OVCAR-3 ovarian): 7.76 µM
- TGI (OVCAR-3 ovarian): 36.3 µM
- GI50 (HCC-2998 colon): 31.1 µM
- TGI (HCC-2998 colon): 54.5 µM
- GI50 (MDA-MB-435): 17.2 µM
- TGI (MDA-MB-435): 36 µM
- GI50 (BT-549 breast): 18.4 µM
- TGI (BT-549 breast): 42.4 µM
- GI50 (UACC-257 melanoma): 5.61 µM
- TGI (UACC-257 melanoma): 44.1 µM
- GI50 (SW-620 colon): 19.4 µM
- TGI (SW-620 colon): 53.1 µM
- GI50 (K-562 leukemia): 35.4 µM
- TGI (K-562 leukemia): > 63.3 µM
- GI50 (HT29 colon): 2.59 µM
- TGI (HT29 colon): > 8.71 µM
- GI50 (M14 melanoma): 1.96 µM
- TGI (M14 melanoma): 35.4 µM

Compound: CCOC(=O)/C=C/c1ccc([N+](=O)[O-])o1
- GI50 (RPMI-8226 leukemia): 3.18 µM
- TGI (RPMI-8226 leukemia): 12.2 µM
- GI50 (OVCAR-3 ovarian): 3.13 µM
- TGI (OVCAR-3 ovarian): 9.21 µM
- GI50 (HCC-2998 colon): 11.2 µM
- TGI (HCC-2998 colon): 24.2 µM
- GI50 (MDA-MB-435): 2.1 µM
- TGI (MDA-MB-435): 4.67 µM
- GI50 (BT-549 breast): 3.43 µM
- TGI (BT-549 breast): 11.4 µM
- GI50 (UACC-257 melanoma): 2.74 µM
- TGI (UACC-257 melanoma): 11.4 µM
- GI50 (SW-620 colon): 2.38 µM
- TGI (SW-620 colon): 7.16 µM
- GI50 (K-562 leukemia): 2.97 µM
- TGI (K-562 leukemia): 12.9 µM
- GI50 (HT29 colon): 3.71 µM
- TGI (HT29 colon): 15.1 µM
- GI50 (M14 melanoma): 2.71 µM
- TGI (M14 melanoma): 8.74 µM

Compound: COc1ccc(C2=NNC(c3sc(Cl)nc3Cl)C2)cc1 (centres undefined)
- GI50 (RPMI-8226 leukemia): 3.86 µM
- TGI (RPMI-8226 leukemia): 19.2 µM
- GI50 (OVCAR-3 ovarian): 3.26 µM
- TGI (OVCAR-3 ovarian): 8.79 µM
- GI50 (HCC-2998 colon): 16.9 µM
- TGI (HCC-2998 colon): 33.9 µM
- GI50 (MDA-MB-435): 3.25 µM
- TGI (MDA-MB-435): 16.7 µM
- GI50 (BT-549 breast): 2.89 µM
- TGI (BT-549 breast): 9.82 µM
- GI50 (UACC-257 melanoma): 16 µM
- TGI (UACC-257 melanoma): 36.2 µM
- GI50 (SW-620 colon): 4.87 µM
- TGI (SW-620 colon): 23.6 µM
- GI50 (K-562 leukemia): 3.63 µM
- TGI (K-562 leukemia): 36.8 µM
- GI50 (HT29 colon): 5.12 µM
- TGI (HT29 colon): 18.6 µM
- GI50 (M14 melanoma): 3.47 µM
- TGI (M14 melanoma): 16.8 µM

Compound: CN(Cc1cnc2nc(N)nc(N)c2n1)c1c(Cl)cc(C(=O)NC(CCC(=O)O)C(=O)O)cc1Cl (centres undefined)
- GI50 (RPMI-8226 leukemia): < 0.01 µM
- TGI (RPMI-8226 leukemia): > 100 µM
- GI50 (OVCAR-3 ovarian): 0.0685 µM
- TGI (OVCAR-3 ovarian): > 100 µM
- GI50 (HCC-2998 colon): < 0.0148 µM
- TGI (HCC-2998 colon): > 100 µM
- GI50 (MDA-MB-435): < 0.01 µM
- TGI (MDA-MB-435): > 100 µM
- GI50 (BT-549 breast): 1.4 µM
- TGI (BT-549 breast): > 100 µM
- TGI (UACC-257 melanoma): > 100 µM
- GI50 (SW-620 colon): < 0.01 µM
- TGI (SW-620 colon): > 100 µM
- GI50 (K-562 leukemia): < 0.01 µM
- TGI (K-562 leukemia): > 100 µM
- GI50 (HT29 colon): < 0.01 µM
- TGI (HT29 colon): > 100 µM
- GI50 (M14 melanoma): < 0.01 µM
- TGI (M14 melanoma): > 100 µM

Compound: CC(=O)/C(=N\N=C(N)N)c1ccccc1
- TGI (RPMI-8226 leukemia): > 100 µM
- TGI (OVCAR-3 ovarian): > 100 µM
- TGI (HCC-2998 colon): > 100 µM
- TGI (MDA-MB-435): > 100 µM
- TGI (BT-549 breast): > 100 µM
- TGI (UACC-257 melanoma): > 100 µM
- TGI (SW-620 colon): > 100 µM
- TGI (K-562 leukemia): > 100 µM
- TGI (HT29 colon): > 100 µM
- TGI (M14 melanoma): > 100 µM

Compound: COc1ccc2c(c1)[n+](=O)c(/C=C/C(=O)c1cc(OC)c(OC)c(OC)c1)c(C)n2[O-]
- GI50 (RPMI-8226 leukemia): 3.05 µM
- TGI (RPMI-8226 leukemia): 15.6 µM
- GI50 (OVCAR-3 ovarian): 2.04 µM
- TGI (OVCAR-3 ovarian): 11.7 µM
- GI50 (HCC-2998 colon): 23.4 µM
- TGI (HCC-2998 colon): 68.7 µM
- GI50 (MDA-MB-435): 6.65 µM
- TGI (MDA-MB-435): > 100 µM
- GI50 (BT-549 breast): 6.11 µM
- TGI (BT-549 breast): 65 µM
- GI50 (UACC-257 melanoma): 9.61 µM
- TGI (UACC-257 melanoma): > 100 µM
- GI50 (SW-620 colon): 4.03 µM
- TGI (SW-620 colon): 47.6 µM
- GI50 (K-562 leukemia): 2.59 µM
- TGI (K-562 leukemia): > 100 µM
- GI50 (HT29 colon): 4.35 µM
- TGI (HT29 colon): 50.9 µM
- GI50 (M14 melanoma): 3.55 µM
- TGI (M14 melanoma): 23.5 µM

Compound: CCS(=O)(=O)c1cccc(-c2cc(C(=O)NC3CCN(C)CC3)c(C)c3[nH]c4ncc(C)cc4c23)c1
- GI50 (RPMI-8226 leukemia): 0.736 µM and 0.929 µM
- TGI (RPMI-8226 leukemia): > 7.51 µM and 9.07 µM
- GI50 (OVCAR-3 ovarian): 0.336 µM and 0.232 µM
- TGI (OVCAR-3 ovarian): 2.48 µM and 1.41 µM
- GI50 (HCC-2998 colon): 0.177 µM and 0.703 µM
- TGI (HCC-2998 colon): 2.14 µM and 4.18 µM
- GI50 (MDA-MB-435): 0.722 µM and 0.304 µM
- TGI (MDA-MB-435): > 10 µM and 4.54 µM
- GI50 (BT-549 breast): 1.75 µM and 0.875 µM
- TGI (BT-549 breast): 5.84 µM and 2.2 µM
- GI50 (UACC-257 melanoma): 1.26 µM and 0.562 µM
- TGI (UACC-257 melanoma): 6.79 µM and 4.67 µM
- GI50 (SW-620 colon): 0.268 µM and 0.143 µM
- TGI (SW-620 colon): > 10 µM and 1.85 µM
- GI50 (K-562 leukemia): 0.21 µM and 0.09 µM
- TGI (K-562 leukemia): > 10 µM and 11 µM
- GI50 (HT29 colon): 0.372 µM and 0.236 µM
- TGI (HT29 colon): > 8.44 µM and 10.3 µM
- GI50 (M14 melanoma): 1.15 µM and 0.967 µM
- TGI (M14 melanoma): > 8.78 µM and 6.73 µM
